What was measured:
Assay type in all cases: in vivo
[1] = system: slender amaranth (Amaranthus viridis L.); experiment: Test Example 2: herbicidal effect by soil application to upland field; settings: soil surface spray, upland field soil, 1,000 g active ingredient per hectare, 21st day after application
Outline: (§1)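 Greenhouse pot assay with field soil. Freshly sown seeds were covered with soil, then the surface was sprayed with diluted wettable powder: 1,000 g a.i./ha, 1,000 L/ha. Herbicidal effect scored at day 21 by standard criteria.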

[2] = system: green foxtail (Setaria viridis (L.) P. Beauv.); experiment: as above; settings: soil surface spray, upland field soil, 1,000 g active ingredient per hectare, 21st day after application
Outline: as §1

[3] = system: barnyardgrass (Echinochloa crus-galli (L.) P. Beauv. var. crus-galli); experiment: as above; settings: soil surface spray, upland field soil, 1,000 g active ingredient per hectare, 21st day after application
Outline: as §1

[4] = system: velvetleaf (Abutilon theophrasti medicus); experiment: as above; settings: soil surface spray, upland field soil, 1,000 g active ingredient per hectare, 21st day after application
Outline: as §1

[5] = system: slender amaranth (Amaranthus viridis L.); experiment: Test Example 3: herbicidal effect by application to upland field (foliage treatment); settings: foliage treatment, 1,000 g active ingredient per 1 hectare, 14th day after application, greenhouse
Outline: (§2)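 A single foliar application of a water-diluted wettable powder, at 1,000 g of active ingredient per hectare, was made to plants raised for two weeks from seed in field soil. Herbicidal activity was judged visually after a further 14 days in the greenhouse.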

[6] = system: green foxtail (Setaria viridis (L.) P. Beauv.); experiment: as above; settings: foliage treatment, 1,000 g active ingredient per 1 hectare, 14th day after application, greenhouse
Outline: as §2

[7] = system: barnyardgrass (Echinochloa crus-galli (L.) P. Beauv. var. crus-galli); experiment: as above; settings: foliage treatment, 1,000 g active ingredient per 1 hectare, 14th day after application, greenhouse
Outline: as §2

[8] = system: velvetleaf (Abutilon theophrasti medicus); experiment: as above; settings: foliage treatment, 1,000 g active ingredient per 1 hectare, 14th day after application, greenhouse
Outline: as §2

[9] = system: Japanese bulrush (Scirpus juncoides Roxb.); experiment: Test Example 1: herbicidal effect by soil application to paddy field; settings: paddy field soil application; active ingredient 1,000 g per 1 hectare; wettable powder added dropwise to water surface the day after sowing; examined on the 21st day after application
Outline: (§3)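 Under greenhouse conditions, seeds sown on puddled paddy soil in 100 cm2 pots under 3 cm of standing water received the test compound; injury was assessed with a standard scoring scheme three weeks (day 21) after treatment.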

[10] = system: early watergrass (Echinochloa oryzicola Vasing); experiment: as above; settings: paddy field soil application; active ingredient 1,000 g per 1 hectare; wettable powder added dropwise to water surface the day after sowing; examined on the 21st day after application
Outline: as §3

[11] = system: heartshape false pickerelweed (Monochoria vaginalis (Burm.f.) C.Presl); experiment: as above; settings: paddy field soil application; active ingredient 1,000 g per 1 hectare; wettable powder added dropwise to water surface the day after sowing; examined on the 21st day after application
Outline: as §3

Compound: CCCS(=O)(=O)Oc1c(C(=O)c2ccc(C(F)(F)F)n(C)c2=O)cnn1C [IV-196]
- herbicidal effect (index), Slender Amaranth [1]: 5 (90% or more of herbicidal effect and crop phytotoxicity)
- herbicidal effect (index), Green Foxtail [2]: 4 (70 to less than 90% of herbicidal effect and crop phytotoxicity)
- herbicidal effect (index), Barnyardgrass [3]: 5 (90% or more of herbicidal effect and crop phytotoxicity)
- herbicidal effect (index), Velvetleaf [4]: 5 (90% or more of herbicidal effect and crop phytotoxicity)
- herbicidal effect, Slender Amaranth [5]: 5 (90% or more of herbicidal effect and crop phytotoxicity)
- herbicidal effect, Green Foxtail [6]: 3 (50 to less than 70% of herbicidal effect and crop phytotoxicity)
- herbicidal effect, Barnyardgrass [7]: 4 (70 to less than 90% of herbicidal effect and crop phytotoxicity)
- herbicidal effect, Velvetleaf [8]: 5 (90% or more of herbicidal effect and crop phytotoxicity)
- herbicidal effect, Scirpus juncoides Roxb. [9]: 5 (90% or more of herbicidal effect and crop phytotoxicity)
- herbicidal effect, Echinochloa oryzicola Vasing [10]: 5 (90% or more of herbicidal effect and crop phytotoxicity)
- herbicidal effect, Monochoria vaginalis (Burm. f.) C. Presl [11]: 5 (90% or more of herbicidal effect and crop phytotoxicity)

Compound: Cn1ncc(C(=O)c2ccc(C(F)(F)F)n(C)c2=O)c1OC(=O)c1ccccc1 [IV-197]
- herbicidal effect (index), Slender Amaranth [1]: 5 (90% or more of herbicidal effect and crop phytotoxicity)
- herbicidal effect (index), Green Foxtail [2]: 4 (70 to less than 90% of herbicidal effect and crop phytotoxicity)
- herbicidal effect (index), Barnyardgrass [3]: 4 (70 to less than 90% of herbicidal effect and crop phytotoxicity)
- herbicidal effect (index), Velvetleaf [4]: 5 (90% or more of herbicidal effect and crop phytotoxicity)
- herbicidal effect, Slender Amaranth [5]: 5 (90% or more of herbicidal effect and crop phytotoxicity)
- herbicidal effect, Green Foxtail [6]: 4 (70 to less than 90% of herbicidal effect and crop phytotoxicity)
- herbicidal effect, Barnyardgrass [7]: 4 (70 to less than 90% of herbicidal effect and crop phytotoxicity)
- herbicidal effect, Velvetleaf [8]: 5 (90% or more of herbicidal effect and crop phytotoxicity)
- herbicidal effect, Scirpus juncoides Roxb. [9]: 5 (90% or more of herbicidal effect and crop phytotoxicity)
- herbicidal effect, Echinochloa oryzicola Vasing [10]: 5 (90% or more of herbicidal effect and crop phytotoxicity)
- herbicidal effect, Monochoria vaginalis (Burm. f.) C. Presl [11]: 5 (90% or more of herbicidal effect and crop phytotoxicity)

Compound: Cn1ncc(C(=O)c2ccc(C(F)(F)F)n(C)c2=O)c1OC(=O)c1ccc(C(C)(C)C)cc1 [IV-198]
- herbicidal effect (index), Slender Amaranth [1]: 5 (90% or more of herbicidal effect and crop phytotoxicity)
- herbicidal effect (index), Green Foxtail [2]: 3 (50 to less than 70% of herbicidal effect and crop phytotoxicity)
- herbicidal effect (index), Barnyardgrass [3]: 3 (50 to less than 70% of herbicidal effect and crop phytotoxicity)
- herbicidal effect (index), Velvetleaf [4]: 4 (70 to less than 90% of herbicidal effect and crop phytotoxicity)
- herbicidal effect, Slender Amaranth [5]: 5 (90% or more of herbicidal effect and crop phytotoxicity)
- herbicidal effect, Green Foxtail [6]: 3 (50 to less than 70% of herbicidal effect and crop phytotoxicity)
- herbicidal effect, Barnyardgrass [7]: 4 (70 to less than 90% of herbicidal effect and crop phytotoxicity)
- herbicidal effect, Velvetleaf [8]: 5 (90% or more of herbicidal effect and crop phytotoxicity)
- herbicidal effect, Scirpus juncoides Roxb. [9]: 5 (90% or more of herbicidal effect and crop phytotoxicity)
- herbicidal effect, Echinochloa oryzicola Vasing [10]: 5 (90% or more of herbicidal effect and crop phytotoxicity)
- herbicidal effect, Monochoria vaginalis (Burm. f.) C. Presl [11]: 5 (90% or more of herbicidal effect and crop phytotoxicity)

Compound: Cn1ncc(C(=O)c2ccc(C(F)(F)F)n(C)c2=O)c1OC(=O)OCc1ccccc1 [IV-199]
- herbicidal effect (index), Slender Amaranth [1]: 5 (90% or more of herbicidal effect and crop phytotoxicity)
- herbicidal effect (index), Green Foxtail [2]: 4 (70 to less than 90% of herbicidal effect and crop phytotoxicity)
- herbicidal effect (index), Barnyardgrass [3]: 5 (90% or more of herbicidal effect and crop phytotoxicity)
- herbicidal effect (index), Velvetleaf [4]: 5 (90% or more of herbicidal effect and crop phytotoxicity)
- herbicidal effect, Slender Amaranth [5]: 5 (90% or more of herbicidal effect and crop phytotoxicity)
- herbicidal effect, Green Foxtail [6]: 3 (50 to less than 70% of herbicidal effect and crop phytotoxicity)
- herbicidal effect, Barnyardgrass [7]: 4 (70 to less than 90% of herbicidal effect and crop phytotoxicity)
- herbicidal effect, Velvetleaf [8]: 5 (90% or more of herbicidal effect and crop phytotoxicity)
- herbicidal effect, Scirpus juncoides Roxb. [9]: 5 (90% or more of herbicidal effect and crop phytotoxicity)
- herbicidal effect, Echinochloa oryzicola Vasing [10]: 5 (90% or more of herbicidal effect and crop phytotoxicity)
- herbicidal effect, Monochoria vaginalis (Burm. f.) C. Presl [11]: 5 (90% or more of herbicidal effect and crop phytotoxicity)

Compound: Cn1ncc(C(=O)c2ccc(C(F)(F)F)n(C)c2=O)c1OC(=O)OCc1ccc(Cl)cc1 [IV-200]
- herbicidal effect (index), Slender Amaranth [1]: 5 (90% or more of herbicidal effect and crop phytotoxicity)
- herbicidal effect (index), Green Foxtail [2]: 4 (70 to less than 90% of herbicidal effect and crop phytotoxicity)
- herbicidal effect (index), Barnyardgrass [3]: 5 (90% or more of herbicidal effect and crop phytotoxicity)
- herbicidal effect (index), Velvetleaf [4]: 5 (90% or more of herbicidal effect and crop phytotoxicity)
- herbicidal effect, Slender Amaranth [5]: 5 (90% or more of herbicidal effect and crop phytotoxicity)
- herbicidal effect, Green Foxtail [6]: 3 (50 to less than 70% of herbicidal effect and crop phytotoxicity)
- herbicidal effect, Barnyardgrass [7]: 4 (70 to less than 90% of herbicidal effect and crop phytotoxicity)
- herbicidal effect, Velvetleaf [8]: 5 (90% or more of herbicidal effect and crop phytotoxicity)
- herbicidal effect, Scirpus juncoides Roxb. [9]: 5 (90% or more of herbicidal effect and crop phytotoxicity)
- herbicidal effect, Echinochloa oryzicola Vasing [10]: 5 (90% or more of herbicidal effect and crop phytotoxicity)
- herbicidal effect, Monochoria vaginalis (Burm. f.) C. Presl [11]: 5 (90% or more of herbicidal effect and crop phytotoxicity)

Compound: CCCn1c(C(F)(F)F)ccc(C(=O)c2cnn(CC)c2OS(=O)(=O)CCC)c1=O [IV-202]
- herbicidal effect (index), Slender Amaranth [1]: 5 (90% or more of herbicidal effect and crop phytotoxicity)
- herbicidal effect (index), Green Foxtail [2]: 5 (90% or more of herbicidal effect and crop phytotoxicity)
- herbicidal effect (index), Barnyardgrass [3]: 5 (90% or more of herbicidal effect and crop phytotoxicity)
- herbicidal effect (index), Velvetleaf [4]: 5 (90% or more of herbicidal effect and crop phytotoxicity)
- herbicidal effect, Slender Amaranth [5]: 5 (90% or more of herbicidal effect and crop phytotoxicity)
- herbicidal effect, Green Foxtail [6]: 5 (90% or more of herbicidal effect and crop phytotoxicity)
- herbicidal effect, Barnyardgrass [7]: 5 (90% or more of herbicidal effect and crop phytotoxicity)
- herbicidal effect, Velvetleaf [8]: 5 (90% or more of herbicidal effect and crop phytotoxicity)
- herbicidal effect, Scirpus juncoides Roxb. [9]: 5 (90% or more of herbicidal effect and crop phytotoxicity)
- herbicidal effect, Echinochloa oryzicola Vasing [10]: 5 (90% or more of herbicidal effect and crop phytotoxicity)
- herbicidal effect, Monochoria vaginalis (Burm. f.) C. Presl [11]: 5 (90% or more of herbicidal effect and crop phytotoxicity)

Compound: CCn1ncc(C(=O)c2ccc(C(F)(F)F)n(CCOCCOC)c2=O)c1O [IV-203]
- herbicidal effect (index), Slender Amaranth [1]: 5 (90% or more of herbicidal effect and crop phytotoxicity)
- herbicidal effect (index), Green Foxtail [2]: 5 (90% or more of herbicidal effect and crop phytotoxicity)
- herbicidal effect (index), Barnyardgrass [3]: 5 (90% or more of herbicidal effect and crop phytotoxicity)
- herbicidal effect (index), Velvetleaf [4]: 5 (90% or more of herbicidal effect and crop phytotoxicity)
- herbicidal effect, Slender Amaranth [5]: 5 (90% or more of herbicidal effect and crop phytotoxicity)
- herbicidal effect, Green Foxtail [6]: 5 (90% or more of herbicidal effect and crop phytotoxicity)
- herbicidal effect, Barnyardgrass [7]: 5 (90% or more of herbicidal effect and crop phytotoxicity)
- herbicidal effect, Velvetleaf [8]: 5 (90% or more of herbicidal effect and crop phytotoxicity)
- herbicidal effect, Scirpus juncoides Roxb. [9]: 5 (90% or more of herbicidal effect and crop phytotoxicity)
- herbicidal effect, Echinochloa oryzicola Vasing [10]: 5 (90% or more of herbicidal effect and crop phytotoxicity)
- herbicidal effect, Monochoria vaginalis (Burm. f.) C. Presl [11]: 5 (90% or more of herbicidal effect and crop phytotoxicity)

Compound: CCCS(=O)(=O)Oc1c(C(=O)c2ccc(C(F)(F)F)n(CCOCCOC)c2=O)cnn1CC [IV-204]
- herbicidal effect (index), Slender Amaranth [1]: 5 (90% or more of herbicidal effect and crop phytotoxicity)
- herbicidal effect (index), Green Foxtail [2]: 5 (90% or more of herbicidal effect and crop phytotoxicity)
- herbicidal effect (index), Barnyardgrass [3]: 5 (90% or more of herbicidal effect and crop phytotoxicity)
- herbicidal effect (index), Velvetleaf [4]: 5 (90% or more of herbicidal effect and crop phytotoxicity)
- herbicidal effect, Slender Amaranth [5]: 5 (90% or more of herbicidal effect and crop phytotoxicity)
- herbicidal effect, Green Foxtail [6]: 5 (90% or more of herbicidal effect and crop phytotoxicity)
- herbicidal effect, Barnyardgrass [7]: 5 (90% or more of herbicidal effect and crop phytotoxicity)
- herbicidal effect, Velvetleaf [8]: 5 (90% or more of herbicidal effect and crop phytotoxicity)
- herbicidal effect, Scirpus juncoides Roxb. [9]: 5 (90% or more of herbicidal effect and crop phytotoxicity)
- herbicidal effect, Echinochloa oryzicola Vasing [10]: 5 (90% or more of herbicidal effect and crop phytotoxicity)
- herbicidal effect, Monochoria vaginalis (Burm. f.) C. Presl [11]: 5 (90% or more of herbicidal effect and crop phytotoxicity)

Source: patent US8076487B2, “Pyridone derivative and herbicide” (Kumiai Chemical Industry Co., Ltd., priority 2006, dated 2011)
